Laboratory results reported in patent publication US9174951B2, “Glucose transporter inhibitors” (The Ohio State University Research Foundation, priority 2012, dated 2015).

Experiments:
GLUT4 = molecular target: T1, GLUT4 (Homo sapiens, UniProt P14672); experiment: [3H]2-DG uptake into LNCaP cells overexpressing GLUT4; assay type: cell-based; details: for inhibition at 5 µM: LNCaP cells transfected with GLUT4, 30 min
T1 construct: The full length GLUT1, GLUT4, and GLUT9 ORF cDNA clones were purchased from Addgene; host or cells: LNCaP
T1 sequence (P14672 1-509): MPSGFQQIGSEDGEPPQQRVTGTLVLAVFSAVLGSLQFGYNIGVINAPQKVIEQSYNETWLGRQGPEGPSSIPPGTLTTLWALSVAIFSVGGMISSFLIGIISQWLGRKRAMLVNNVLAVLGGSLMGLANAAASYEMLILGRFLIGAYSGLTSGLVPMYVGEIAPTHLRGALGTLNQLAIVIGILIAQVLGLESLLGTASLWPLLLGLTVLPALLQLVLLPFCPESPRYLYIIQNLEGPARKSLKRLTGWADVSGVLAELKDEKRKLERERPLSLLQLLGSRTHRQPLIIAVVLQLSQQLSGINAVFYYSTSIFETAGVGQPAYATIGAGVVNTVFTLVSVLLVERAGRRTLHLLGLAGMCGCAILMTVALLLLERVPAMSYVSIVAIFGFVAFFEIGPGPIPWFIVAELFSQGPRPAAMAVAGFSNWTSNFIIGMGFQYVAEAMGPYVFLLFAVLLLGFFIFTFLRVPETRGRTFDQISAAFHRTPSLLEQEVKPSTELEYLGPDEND
Text: (§1) As information regarding the expression pattern of individual GLUT members in LNCaP cells was lacking, quantitative real time polymerase chain reaction (qRT-PCR) was used to assess the mRNA levels of the hypoxia-responsive GLUT1 and GLUT3, and three other representative GLUT members, including the class I GLUT2 and GLUT4 and the class II GLUT9. Among these five members, LNCaP cells expressed GLUT1 and, to a much lesser extent, GLUT9, while the mRNA levels of GLUTs2-4 were negligible (FIG. 3B). To examine the isoform specificity of these inhibitors, LNCaP cells were ectopically transfected with plasmids encoding GLUT1, GLUT3, GLUT4, or GLUT9 vis-à-vis the pCMV control vector so that the increased glucose uptake in GLUT-transfected cells relative to pCMV control cells was indicative of the activity of the ectopically expressed GLUT protein.
(§2) Glucose Uptake Assay. LNCaP cells were seeded in six-well plates (3×10^5 cells/well) for 24 h. Cells were washed twice with Krebs-Ringer phosphate buffer (126 mM NaCl, 2.5 mM KCl, 25 mM NaHCO3, 1.2 mM NaH2PO4, 1.2 mM MgCl2, 2.5 mM CaCl2, pH 7.4) and were then treated with individual agents in Krebs-Ringer phosphate buffer. After 1.5 h, glucose uptake was initiated by adding 1 mL Krebs-Ringer buffer containing […] [^3H]2-DG (PerkinElmer Life Science) and […] non-radioactive 2-DG and was terminated by washing with cold PBS. The cells were lysed in […] lysis buffer (10 mM Tris-HCl pH 8.0, 0.1% SDS) and aliquots were taken for measurement of radioactivity using a scintillation counter (Beckman LS6500).
(§3) Plasmid Construction, Transient Transfection and Immunoblotting. The full length GLUT1, GLUT4, and GLUT9 ORF cDNA clones were purchased from Addgene (Cambridge, Mass.) and GLUT3 ORF cDNA was purchased from Origene Technologies (Rockville, Md.). GLUT1, GLUT3, and GLUT9 were subcloned into the HindIII/SalI sites and GLUT4 was subcloned into the EcoRI/SalI sites of pEGFP-N2 expression vector (Clontech, Palo Alto, Calif.). […]

GLUT9 = molecular target: T2, GLUT9 (Homo sapiens, UniProt Q9NRM0); experiment: [3H]2-DG uptake into LNCaP cells overexpressing GLUT9; assay type: cell-based; details: for inhibition at 5 µM: LNCaP cells transfected with GLUT9, 30 min
T2 construct: The full length GLUT1, GLUT4, and GLUT9 ORF cDNA clones were purchased from Addgene; EGFP (from the pEGFP-N2 vector); host or cells: LNCaP
T2 sequence (Q9NRM0 1-540): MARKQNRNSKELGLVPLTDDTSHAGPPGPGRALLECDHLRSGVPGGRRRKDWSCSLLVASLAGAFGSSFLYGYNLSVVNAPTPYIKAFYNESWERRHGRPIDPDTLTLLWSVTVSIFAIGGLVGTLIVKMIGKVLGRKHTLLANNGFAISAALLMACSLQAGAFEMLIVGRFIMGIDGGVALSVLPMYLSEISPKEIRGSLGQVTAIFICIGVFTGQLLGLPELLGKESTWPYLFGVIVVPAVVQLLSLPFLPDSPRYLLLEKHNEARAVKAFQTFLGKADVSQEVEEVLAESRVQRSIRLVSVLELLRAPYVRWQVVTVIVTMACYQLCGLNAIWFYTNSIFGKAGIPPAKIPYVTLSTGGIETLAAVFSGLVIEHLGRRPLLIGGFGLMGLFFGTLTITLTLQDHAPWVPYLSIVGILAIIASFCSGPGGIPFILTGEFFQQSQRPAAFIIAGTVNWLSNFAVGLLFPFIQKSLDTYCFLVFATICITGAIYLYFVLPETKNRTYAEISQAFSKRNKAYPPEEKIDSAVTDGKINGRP
Text: as §1, §2, §3

SMILES	inhibition at 5 µM (GLUT4) [%]	inhibition at 5 µM (GLUT9) [%]	IC50 (GLUT4; LNCaP cells overexpressing GLUT4, read-out: IC50 for GLUT4-mediated [3H]2-DG uptake) [µM]	IC50 (GLUT9; LNCaP cells overexpressing GLUT9, read-out: IC50 for GLUT9-mediated [3H]2-DG uptake) [µM]
CCC(CC)CN1C(=O)S/C(=C\c2ccc(O)c(C(F)(F)F)c2)C1=O [Compound 5]	32	26	–	–
CC(CN1C(=O)S/C(=C\c2ccc(O)c(C(F)(F)F)c2)C1=O)(CC(F)(F)F)CC(F)(F)F [Compound 30, 5-(4-Hydroxy-3-trifluoromethyl-benzylidene)-3-[4,4,4-trifluoro-2-methyl-2-(2,2,2-trifluoro-ethyl)-butyl]-thiazolidine-2,4-dione]	42	34	≥ 5	≥ 5
